Results as given in patent US8263046B2, “N-phenyl-N-pyridinyl-benzamides and benzenesulfonomides having cooling properties” (Givaudan S.A., priority 2005, dated 2012).

These compounds were tested on panelists (assay: Experiments on cooling properties/intensities: panelists taste aqueous solutions). Conditions: aqueous solution with cooling intensity similar or slightly higher than that of a solution of I-menthol at 2 ppm.
Type: in vivo
Work on `O=S(=O)(c1ccc(Cl)cc1)N(CCc1ccccn1)c1ccccc1` [Example 3a, 4-Chloro-N-phenyl-N-[2-(pyridin-2-yl)ethyl]benzenesulfonamide] yielded a Concentration of 2 ppm. In the case of `COc1ccc(C(=O)N(CCc2ccccn2)c2ccccc2)cc1` [Example 1, 4-Methoxy-N-phenyl-N-[2-(pyridin-2-yl)ethyl]benzamide], the Concentration is reported as 1.5 ppm. Compound `CCNC(=O)C1CC(C)CCC1C(C)C` (stereo not shown) [WS-3, N-ethyl p-menthanecarboxamide, reference compound] has a Concentration of 1.5 ppm. Work on `COc1ccc(S(=O)(=O)N(CCc2ccccn2)c2ccccc2)cc1` [Example 2, 4-Methoxy-N-phenyl-N-[2-(pyridin-2-yl)ethyl]benzenesulfonamide] yielded a Concentration of 2 ppm.
